Test results as given in US20120157401A1, “METHODS FOR TREATING NEUROFIBROMATOSIS” (PTC Therapeutics, Inc., priority 2009, published 2012).

Test system: hypoxia-inducible endogenous VEGF expression
Assay: Hypoxia-inducible endogenous VEGF expression ELISA in HeLa cells, dose-response EC50 (Table 3)
Type: cell-based, human
Conditions: Homo sapiens, HeLa, read-out: ELISA EC50 μM
Method: The ability of the Compounds to modulate hypoxia-inducible endogenous VEGF expression may be analyzed as follows. VEGF protein levels may be monitored by an ELISA assay (R&D Systems). Briefly, HeLa cells may be cultured for 24-48 hours under hypoxic conditions (1% O2, 5% CO2, balanced with nitrogen) in the presence or absence of a Compound. The conditioned media may then be assayed by ELISA, and the concentration of VEGF calculated from the standard ELISA curve of each assay.
A dose-response analysis may be performed using the ELISA assay and conditions described above. The conditions for the dose-response ELISA are analogous to those described above. A series of, e.g., seven different concentrations may be analyzed. In parallel, a dose-response cytotoxicity assay may be performed using Cell Titer Glo (Promega) under the same conditions as the ELISA to ensure that the inhibition of VEGF expression was not due to the cytotoxicity.

Structure (SMILES)	EC50 [µM]
O=C(Oc1ccc(F)cc1)N1CCc2c([nH]c3ccc(Cl)cc23)C1c1cccc(OCCCN2CCOCC2)c1 (centres unmarked) [Compound 1115]	0.008 to 0.04
COc1cc(C2c3[nH]c4ccc(Cl)cc4c3CCN2C(=O)Oc2ccccc2)ccc1OCCCN1CCOCC1 (centres unmarked) [Compound 1130]	0.008 to 0.04
O=C(Oc1ccc(Cl)cc1)N1CCc2c([nH]c3ccc(Cl)cc23)[C@@H]1c1ccc(OC2CCN(CCN3CCOCC3)CC2)cc1 [Compound 1682]	< 0.008
O=C(Oc1ccc(Cl)cc1)N1CCc2c([nH]c3ccc(Cl)cc23)C1c1ccc(OCCCCN2CCCC2)cc1 (centres unmarked) [Compound 698]	0.008 to 0.04
COCCN(CCOC)CC(O)COc1ccc(C2c3[nH]c4ccc(Cl)cc4c3CCN2C(=O)Oc2ccc(F)cc2)cc1 (centres unmarked) [Compound 913]	< 0.008
O=C(Oc1ccccc1)N1CCc2c([nH]c3ccc(Cl)cc23)C1c1ccc(OCCCN2CCOCC2)cc1 (centres unmarked) [Compound 1075]	0.008 to 0.04
COCCN(CCCOc1cccc(C2c3[nH]c4ccc(Cl)cc4c3CCN2C(=O)Oc2ccc(F)cc2)c1)CCOC (centres unmarked) [Compound 1119]	0.04 to 0.2
COC(=O)[C@H]1CCCN1CCCOc1ccc(C2c3[nH]c4ccc(Cl)cc4c3CCN2C(=O)Oc2ccc(Cl)cc2)cc1 (some centres unmarked) [Compound 1362]	< 0.008
Cc1ccc(OC(=O)N2CCc3c([nH]c4ccc(Cl)cc34)C2c2ccc(OCC3CCCN(C)C3)cc2)cc1 (centres unmarked) [Compound 951]	0.008 to 0.04
O=C(Oc1ccc(F)cc1)N1CCc2c([nH]c3ccc(Cl)cc23)C1c1ccc(OCC(O)CN2CCOCC2)cc1 (centres unmarked) [Compound 638]	< 0.008
Cc1ccc(OC(=O)N2CCc3c([nH]c4ccc(Cl)cc34)[C@@H]2c2ccc(OCCC(O)CN3CCOCC3)cc2)cc1 (some centres unmarked) [Compound 1302]	0.04 to 0.2
O=C(Oc1ccc(F)cc1)N1CCc2c([nH]c3ccc(Cl)cc23)C1c1ccc(OCCCCCCN2CCCCC2)cc1 (centres unmarked) [Compound 777]	< 0.008
O=C(COc1ccc(C2c3[nH]c4ccc(Cl)cc4c3CCN2C(=O)Oc2ccc(F)cc2)cc1)N1CCN(CCO)CC1 (centres unmarked) [Compound 1064]	0.008 to 0.04
COc1ccc(OC(=O)N2CCc3c([nH]c4ccc(Cl)cc34)C2c2ccc(OCC(=O)N3CCN(CCCN(C)C)CC3)cc2)cc1 (centres unmarked) [Compound 1029]	> 1
COCCN1CCN(C(=O)COc2ccc(C3c4[nH]c5ccc(Cl)cc5c4CCN3C(=O)Oc3ccc(F)cc3)cc2)CC1 (centres unmarked) [Compound 1021]	0.04 to 0.2
COCCN(C)CCCOc1cccc(C2c3[nH]c4ccc(Cl)cc4c3CCN2C(=O)Oc2ccc(F)cc2)c1 (centres unmarked) [Compound 1121]	> 1
NCC(O)COc1ccc(C2c3[nH]c4ccc(Cl)cc4c3CCN2C(=O)Oc2ccc(Cl)cc2)cc1 (centres unmarked) [Compound 846]	0.04 to 0.2
CN1CCC(Oc2ccc([C@H]3c4[nH]c5ccc(Cl)cc5c4CCN3C(=O)Oc3ccc(Cl)cc3)cc2)CC1 [Compound 1694]	< 0.008
CN1CCN(CCCCOc2ccc(C3c4[nH]c5ccc(Cl)cc5c4CCN3C(=O)Oc3ccc(F)cc3)cc2)CC1 (centres unmarked) [Compound 740]	0.04 to 0.2
O=C(Oc1ccc(Cl)cc1)N1CCc2c([nH]c3ccc(Cl)cc23)C1c1ccc(OCCCN2CCSCC2)cc1 (centres unmarked) [Compound 933]	< 0.008
CCN(CC)CC(O)COc1ccc(C2c3[nH]c4ccc(Cl)cc4c3CCN2C(=O)Oc2ccc(Cl)cc2)cc1 (centres unmarked) [Compound 938]	< 0.008
CC(=O)N1CCN(CC(O)COc2ccc(C3c4[nH]c5ccc(Cl)cc5c4CCN3C(=O)Oc3ccc(F)cc3)cc2)CC1 (centres unmarked) [Compound 637]	< 0.008
O=C(Oc1ccc(Cl)cc1)N1CCc2c([nH]c3ccc(Cl)cc23)C1c1ccc(OCCCN2CCCC2)cc1 (centres unmarked) [Compound 429]	< 0.008
O=C(Oc1ccc(F)cc1)N1CCc2c([nH]c3ccc(Cl)cc23)C1c1ccc(OCCCCN2CCCC2)cc1 (centres unmarked) [Compound 736]	< 0.008
O=C(Oc1ccc(Cl)cc1)N1CCc2c([nH]c3ccc(Cl)cc23)[C@@H]1c1ccc(OC[C@H](O)CN2CCOCC2)cc1 [Compound 1070]	< 0.008
CN1CCN(CCCOc2ccc(C3c4[nH]c5ccc(Cl)cc5c4CCN3C(=O)Oc3ccc(F)cc3)cc2)CC1 (centres unmarked) [Compound 993]	< 0.008
CN1CCN(CC(O)COc2ccc(C3c4[nH]c5ccc(Cl)cc5c4CCN3C(=O)Oc3ccc(Cl)cc3)cc2)CC1 (centres unmarked) [Compound 970]	0.008 to 0.04
COCCN(CCOC)CC(O)COc1ccc(C2c3[nH]c4ccc(Cl)cc4c3CCN2C(=O)Oc2ccc(Cl)cc2)cc1 (centres unmarked) [Compound 918]	< 0.008
CN1CCC(OCCCOc2ccc(C3c4[nH]c5ccc(Cl)cc5c4CCN3C(=O)Oc3ccc(Cl)cc3)cc2)CC1 (centres unmarked) [Compound 1554]	> 1

Same assay, conditions: Homo sapiens; HeLa cells, hypoxic conditions (1% O2), 24-48 hours, VEGF in conditioned media; read-out: ELISA EC50

Structure (SMILES)	EC50 [µM]
O=C(Oc1ccc(Cl)cc1)N1CCc2c([nH]c3ccc(Cl)cc23)C1c1ccc(OCCNc2nccs2)cc1 (centres unmarked) [#841]	< 0.008
COc1ccc(OC(=O)N2CCc3c([nH]c4ccc(Cl)cc34)C2c2ccc(OCCCn3ccnn3)cc2)cc1 (centres unmarked) [Compound 1031]	< 0.008
COc1cc(C2c3[nH]c4ccc(Cl)cc4c3CCN2C(=O)Oc2ccc(C)cc2)ccc1OCCCn1nccn1 (centres unmarked) [Compound 1194]	< 0.008
O=C(Oc1ccccc1Cl)N1CCc2c([nH]c3ccc(Cl)cc23)C1c1ccc(OCCCn2ccnc2)cc1 (centres unmarked) [Compound 934]	< 0.008
O=C(Oc1ccc(Cl)cc1)N1CCc2c([nH]c3ccc(Cl)cc23)C1c1ccc(OCCCn2cncn2)cc1 (centres unmarked) [Compound 391]	< 0.008
Cc1ccc(OC(=O)N2CCc3c([nH]c4ccc(Cl)cc34)[C@@H]2c2ccc(OCCCn3cncn3)cc2)cc1 [Compound 1182]	< 0.008
O=C(Oc1ccc(Cl)cc1)N1CCc2c([nH]c3ccc(Cl)cc23)C1c1ccc(NC2CCOCC2)cc1 (centres unmarked) [Compound 440]	< 0.008
COc1ccc(OC(=O)N2CCc3c([nH]c4ccc(Cl)cc34)C2c2ccc(S(=O)(=O)N3CCOCC3)cc2)cc1 (centres unmarked) [Compound 455]	0.008 to 0.04
O=C(O)c1ccc(C2c3[nH]c4ccc(Br)cc4c3CCN2C(=O)Oc2ccc(Cl)cc2)cc1 (centres unmarked) [Compound 519]	0.2 to 1
COCCOc1ccc(C2c3[nH]c4ccc(Cl)cc4c3CCN2C(=O)Oc2ccc(Cl)cc2)cc1 (centres unmarked) [Compound 418]	< 0.008
COc1cc(C2c3[nH]c4ccc(Cl)cc4c3CCN2C(=O)Oc2ccc(Cl)cc2)ccc1OCCCn1cncn1 (centres unmarked) [Compound 1087]	0.008 to 0.04
COc1ccc(OC(=O)N2CCc3c([nH]c4ccc(Cl)cc34)C2c2ccc(OCC3OCCO3)cc2)cc1 (centres unmarked) [Compound 1055]	0.008 to 0.04
COc1ccc(C2c3[nH]c4ccc(Br)cc4c3CCN2C(=O)Oc2ccc(Cl)cc2)cc1 (centres unmarked) [Compound 355]	< 0.008
CC(C)c1ccc(C2c3[nH]c4ccc(Cl)cc4c3CCN2C(=O)Oc2ccc(Cl)cc2)cc1 (centres unmarked) [Compound 348]	< 0.008
CS(=O)(=O)NCC(O)COc1ccc(C2c3[nH]c4ccc(Cl)cc4c3CCN2C(=O)Oc2ccc(Cl)cc2)cc1 (centres unmarked) [Compound 849]	0.008 to 0.04
CC(C)OC(=O)Nc1ccc(C2c3[nH]c4ccc(Cl)cc4c3CCN2C(=O)Oc2ccc(Cl)cc2)cc1 (centres unmarked) [Compound 489]	0.04 to 0.2
Cc1ccc(C2c3[nH]c4ccc(Cl)cc4c3CCN2C(=O)Oc2ccc(Cl)cc2)cc1 (centres unmarked) [Compound 347]	< 0.008
O=C(Oc1ccc(F)cc1)N1CCc2c([nH]c3ccc(Cl)cc23)C1c1ccc(OCC(O)CO)cc1 (centres unmarked) [Compound 627]	< 0.008
O=C(Oc1ccc(F)cc1)N1CCc2c([nH]c3ccc(Cl)cc23)C1c1cccc(OCCCn2ccnc2)c1 (centres unmarked) [Compound 1123]	0.04 to 0.2
O=C(Oc1ccc(F)cc1)N1CCc2c([nH]c3ccc(Cl)cc23)C1c1ccc(OCCCCn2ccnc2)cc1 (centres unmarked) [Compound 742]	< 0.008
Cc1ccc(C2c3[nH]c4ccc(Br)cc4c3CCN2C(=O)Oc2ccc(F)cc2)cc1 (centres unmarked) [Compound 398]	< 0.008
O=C(Oc1ccc(Cl)cc1)N1CCc2c([nH]c3ccc(Cl)cc23)C1c1ccc(OCC(O)Cn2ccnn2)cc1 (centres unmarked) [Compound 973]	0.008 to 0.04
O=C(Oc1ccc(Cl)cc1)N1CCc2c([nH]c3ccc(Cl)cc23)C1c1ccc(OCCNc2cccnc2)cc1 (centres unmarked) [#843]	< 0.008

Same assay, conditions: Homo sapiens; HeLa cells, hypoxic conditions (1% O2), VEGF ELISA of conditioned media; read-out: ELISA EC50

Structure (SMILES)	EC50 [µM]
N#CCOc1ccc([C@H]2c3[nH]c4ccc(Cl)cc4c3CCN2C(=O)Oc2ccc(Cl)cc2)cc1 [Compound 1669]	< 0.008
C[Si](C)(C)CCS(=O)(=O)N1CCC(Oc2ccc([C@H]3c4[nH]c5ccc(Cl)cc5c4CCN3C(=O)Oc3ccc(F)cc3)cc2)CC1 [Compound 1607]	< 0.008
Cc1ccc(OC(=O)N2CCc3c([nH]c4ccc(Cl)cc34)[C@@H]2c2ccc(OCCC(O)CNC(=O)C(C)C)cc2)cc1 (some centres unmarked) [Compound 1640]	< 0.008
CS(=O)(=O)CCCOc1ccc(C2c3[nH]c4ccc(Cl)cc4c3CCN2C(=O)Oc2ccc(Cl)cc2)cc1 (centres unmarked) [Compound 1551]	< 0.008
N#CCOc1ccc(C2c3[nH]c4ccc(Cl)cc4c3CCN2C(=O)Oc2ccc(F)cc2)cc1 (centres unmarked) [Compound 1548]	0.008 to 0.04
COCCOC(=O)NCC(O)CCOc1ccc([C@H]2c3[nH]c4ccc(Cl)cc4c3CCN2C(=O)Oc2ccc(Cl)cc2)cc1 (some centres unmarked) [Compound 1637]	< 0.008
NC(=O)c1cn(CCOc2ccc(C3c4[nH]c5ccc(Cl)cc5c4CCN3C(=O)Oc3ccc(Cl)cc3)cc2)nc1N (centres unmarked) [Compound 1422]	0.008 to 0.04
CC(C)SCCCOc1ccc(C2c3[nH]c4ccc(Cl)cc4c3CCN2C(=O)Oc2ccc(Cl)cc2)cc1 (centres unmarked) [Compound 1553]	< 0.008
O=C(Oc1ccc(Cl)cc1)N1CCc2c([nH]c3ccc(Cl)cc23)[C@@H]1c1ccc(Oc2ccc(Cl)nn2)cc1 [Compound 1698]	< 0.008
COC(=O)NCC(O)CCOc1ccc([C@H]2c3[nH]c4ccc(Cl)cc4c3CCN2C(=O)Oc2ccc(C)cc2)cc1 (some centres unmarked) [Compound 1642]	< 0.008
